Results taken from paper PMC10459693, “Toward Stability Enhancement of NTS1R-Targeted Radioligands: Structural Interventions on [^99mTc]Tc-DT1” (Pharmaceutics, 2023).
Peptide text beside a SMILES is read from it. * marks the point of attachment. Palmitoyl = CCCCCCCCCCCCCCCC(=O)*; X1 = NCCNCC(CNCCN)C(=O)*

Test system: AsPC-1 cells
Test: NTS1R-specific uptake and internalization in AsPC-1 cells
Assay type: cell-based, human
Protocol: The NTS1R-specific internalization of [^99mTc]Tc-DT1/7/8/9 radioligands was compared in AsPC-1 cells. The cells were seeded in 6-well plates (1 × 10^6 cells per well) and left to grow overnight. The following day, the medium was aspirated, and the cells were washed twice with internalization medium (2 mL IM: RPMI supplemented with 1% v/v FBS) on ice. They were placed on the bench, and warm IM (1200 μL 37 °C) was added per well, followed by radioligand solution (150 μL, 250 fmol) and either IM (150 μL total: T; upper wells) or NT (10^−5 M in IM, non-specific: NS; lower wells). The plates were placed in the Incubator-Orbital Shaker at 37 °C for 1 h, and the incubation was interrupted by placing the plates on ice. The supernatant was collected in RIA tubes, and the cells were washed with 1 mL phosphate-buffered saline (PBS, pH 7.4, 4 °C) containing 0.5% w/v BSA, and the washing was also collected in the same RIA tube. Cells were treated twice for 5 min with glycine buffer (600 μL, 50 mM glycine, 0.1 M NaCl, pH 2.8), and supernatants were collected (membrane bound fraction, MB). The cells were washed again with 1 mL ice-cold PBS-BSA buffer, which was discarded. Finally, cells were lysed (2 × 600 μL 1 M NaOH), and the lysates were collected (internalized fraction, IF). Sample radioactivity was measured on the γ-counter. Specific values for MB and IF were acquired by subtracting NS values from T ones. Results are expressed as mean percentage of added radioactivity ± sd, n = 3. In addition, time-dependent internalization in AsPC-1 cells was directly compared for [^99mTc]Tc-DT1/9 by incubation at 37 °C for 15 min, 30 min, 1 h, and 2 h, following the above-described protocol for each time point.

## CCCCCCCCCCCCCCCC(=O)NCCCC[C@H](NC(=O)C(CNCCN)CNCCN)C(=O)N[C@@H](CCCNC(=N)N)C(=O)N[C@@H](CCCNC(=N)N)C(=O)N1CCC[C@H]1C(=O)N[C@@H](Cc1ccc(O)cc1)C(=O)N[C@H](C(=O)N[C@@H](CC(C)C)C(=O)O)[C@@H](C)CC [[^99mTc]Tc-DT9, metal not drawn] (X1-K(Palmitoyl)RRPYIL-OH)
1 h at 37 °C
  internalization, specific of added radioactivity: 16.53 ± 1.12%
  specific cell uptake of added radioactivity (internalized + membrane bound): 16.76 ± 1.16%
2 h at 37 °C
  specific uptake of added radioactivity (time-dependent internalization): 21.5 ± 1.0%
